The source made the active and inactive calls. The rule behind the calls is not given here.
Key:
CCRF-CEM = assay: Cytotoxicity against human CCRF-CEM cells assessed as growth inhibition at 10 uM after 24 hrs by SRB assay; format: functional
HL-60(TB) = assay: Cytotoxicity against human HL-60(TB) cells assessed as growth inhibition at 10 uM after 24 hrs by SRB assay; format: functional
K562 = assay: Cytotoxicity against human K562 cells assessed as growth inhibition at 10 uM after 24 hrs by SRB assay; format: functional
RPMI-8226 = assay: Cytotoxicity against human RPMI8226 cells assessed as growth inhibition at 10 uM after 24 hrs by SRB assay; format: functional
SR = assay: Cytotoxicity against human SR cells assessed as growth inhibition at 10 uM after 24 hrs by SRB assay; format: functional; details: for inhibition of growth at 10 µM: read-out: GI
A549 = assay: Cytotoxicity against human A549 cells assessed as growth inhibition at 10 uM after 24 hrs by SRB assay; format: functional
HOP-62 = assay: Cytotoxicity against human HOP62 cells assessed as growth inhibition at 10 uM after 24 hrs by SRB assay; format: functional
HOP-92 = assay: Cytotoxicity against human HOP92 cells assessed as growth inhibition at 10 uM after 24 hrs by SRB assay; format: functional
NCI-H226 = assay: Cytotoxicity against human NCI-H226 cells assessed as growth inhibition at 10 uM after 24 hrs by SRB assay; format: functional
NCI-H460 = assay: Cytotoxicity against human NCI-H460 cells assessed as growth inhibition at 10 uM after 24 hrs by SRB assay; format: functional
NCI-H522 = assay: Cytotoxicity against human NCI-H522 cells assessed as growth inhibition at 10 uM after 24 hrs by SRB assay; format: functional
HCT-116 = assay: Cytotoxicity against human HCT116 cells assessed as growth inhibition at 10 uM after 24 hrs by SRB assay; format: functional
SF-295 = assay: Cytotoxicity against human SF295 cells assessed as growth inhibition at 10 uM after 24 hrs by SRB assay; format: functional
SF-539 = assay: Cytotoxicity against human SF539 cells assessed as growth inhibition at 10 uM after 24 hrs by SRB assay; format: functional
SNB-75 = assay: Cytotoxicity against human SNB75 cells assessed as growth inhibition at 10 uM after 24 hrs by SRB assay; format: functional
U-251 = assay: Cytotoxicity against human U251 cells assessed as growth inhibition at 10 uM after 24 hrs by SRB assay; format: functional
Malme-3M = assay: Cytotoxicity against human MALME-3M cells assessed as growth inhibition at 10 uM after 24 hrs by SRB assay; format: functional; details: for inhibition of growth at 10 µM: read-out: GI
MDA-MB-435 = assay: Cytotoxicity against human MDA-MB-435 cells assessed as growth inhibition at 10 uM after 24 hrs by SRB assay; format: functional
SK-MEL-28 = assay: Cytotoxicity against human SK-MEL-28 cells assessed as growth inhibition at 10 uM after 24 hrs by SRB assay; format: functional
SK-MEL-5 = assay: Cytotoxicity against human SK-MEL-5 cells assessed as growth inhibition at 10 uM after 24 hrs by SRB assay; format: functional
UACC-257 = assay: Cytotoxicity against human UACC257 cells assessed as growth inhibition at 10 uM after 24 hrs by SRB assay; format: functional
UACC-62 = assay: Cytotoxicity against human UACC62 cells assessed as growth inhibition at 10 uM after 24 hrs by SRB assay; format: functional
OVCAR-3 = assay: Cytotoxicity against human OVCAR3 cells assessed as growth inhibition at 10 uM after 24 hrs by SRB assay; format: functional
OVCAR-4 = assay: Cytotoxicity against human OVCAR4 cells assessed as growth inhibition at 10 uM after 24 hrs by SRB assay; format: functional
OVCAR-8 = assay: Cytotoxicity against human OVCAR8 cells assessed as growth inhibition at 10 uM after 24 hrs by SRB assay; format: functional
NCI/ADR-RES = assay: Cytotoxicity against human NCI/ADR-RES cells assessed as growth inhibition at 10 uM after 24 hrs by SRB assay; format: functional
SK-OV-3 = assay: Cytotoxicity against human SKOV3 cells assessed as growth inhibition at 10 uM after 24 hrs by SRB assay; format: functional
786-0 = assay: Cytotoxicity against human 786-0 cells assessed as growth inhibition at 10 uM after 24 hrs by SRB assay; format: functional
ACHN = assay: Cytotoxicity against human ACHN cells assessed as growth inhibition at 10 uM after 24 hrs by SRB assay; format: functional
CAKI-1 = assay: Cytotoxicity against human CAKI-1 cells assessed as growth inhibition at 10 uM after 24 hrs by SRB assay; format: functional
RXF 393 = assay: Cytotoxicity against human RXF393 cells assessed as growth inhibition at 10 uM after 24 hrs by SRB assay; format: functional
TK-10 = assay: Cytotoxicity against human TK10 cells assessed as growth inhibition at 10 uM after 24 hrs by SRB assay; format: functional
PC-3 = assay: Cytotoxicity against human PC3 cells assessed as growth inhibition at 10 uM after 24 hrs by SRB assay; format: functional
MCF7 = assay: Cytotoxicity against human MCF7 cells assessed as growth inhibition at 10 uM after 24 hrs by SRB assay; format: functional
MDA-MB-231 = assay: Cytotoxicity against human MDA-MB-231 cells assessed as growth inhibition at 10 uM after 24 hrs by SRB assay; format: functional
Hs-578T = assay: (§1) Cytotoxicity against human Hs578T cells assessed as growth inhibition at 10 uM after 24 hrs by SRB assay; format: functional
T47D = assay: Cytotoxicity against human T47D cells assessed as growth inhibition at 10 uM after 24 hrs by SRB assay; format: functional
Ovis aries = organism: Ovis aries; assay: Inhibition of sheep tubulin polymerization at 100 uM by fluorescence assay
[1] = as §1; format: functional; details: Hs-578T, read-out: GI

| SMILES | growth inhibition (GI) (CCRF-CEM) | growth inhibition (GI) (HL-60(TB)) | growth inhibition (GI) (RPMI-8226) | growth inhibition (GI) (A549) | growth inhibition (GI) (HOP-92) | growth inhibition (GI) (NCI-H226) | growth inhibition (GI) (NCI-H460) | growth inhibition (GI) (NCI-H522) | growth inhibition (GI) (HCT-116) | growth inhibition (GI) (SF-539) | growth inhibition (GI) (U-251) | growth inhibition (GI) (SK-MEL-5) | growth inhibition (GI) (UACC-62) | growth inhibition (GI) (OVCAR-3) | growth inhibition (GI) (OVCAR-8) | growth inhibition (GI) (NCI/ADR-RES) | growth inhibition (GI) (SK-OV-3) | growth inhibition (GI) (786-0) | growth inhibition (GI) (ACHN) | growth inhibition (GI) (CAKI-1) | other results |
| --- | --- | --- | --- | --- | --- | --- | --- | --- | --- | --- | --- | --- | --- | --- | --- | --- | --- | --- | --- | --- | --- |
| COc1nc(OC)nc(-c2cc(C(=O)c3cc(OC)c(OC)c(OC)c3)n3ccccc23)n1 | inactive | inactive | inactive | inactive | inactive | inactive | inactive | inactive | inactive | inactive | inactive | inactive | inactive | inactive | inactive | inactive | inactive | inactive | inactive | inactive | inhibition of growth at 10 µM (K562; K562, 24 h, read-out: GI): 10%; inhibition of growth at 10 µM (SR): 20%; growth inhibition (GI) (HOP-62): inactive; growth inhibition (GI) (SF-295): inactive; growth inhibition (GI) (SNB-75): inactive; inhibition of growth at 10 µM (Malme-3M): 11%; inhibition of growth at 10 µM (MDA-MB-435; MDA-MB-435, 24 h, read-out: GI): 35%; growth inhibition (GI) (SK-MEL-28): inactive; growth inhibition (GI) (UACC-257): inactive; growth inhibition (GI) (OVCAR-4): inactive; growth inhibition (GI) (RXF 393): inactive; growth inhibition (GI) (TK-10): inactive; growth inhibition (GI) (PC-3): inactive; growth inhibition (GI) (MCF7): inactive; growth inhibition (GI) (MDA-MB-231): inactive; growth inhibition (GI) (Hs-578T): inactive; growth inhibition (GI) (T47D): inactive; inhibition (Ovis aries): inactive |
| COc1nc(OC)nc(-c2cc(C(=O)c3ccc(Br)cc3)n3ccc(C)cc23)n1 | inactive | inactive | inactive | inactive | inactive | inactive | inactive | inactive | inactive | inactive | inactive | inactive | inactive | inactive | inactive | inactive | inactive | inactive | inactive | inactive | growth inhibition (GI) (K562): inactive; growth inhibition (GI) (SR): inactive; growth inhibition (GI) (HOP-62): inactive; inhibition of growth at 10 µM (SF-295; SF-295, 24 h, read-out: GI): 20%; growth inhibition (GI) (SNB-75): inactive; inhibition of growth at 10 µM (Malme-3M): 73%; growth inhibition (GI) (MDA-MB-435): inactive; inhibition of growth at 10 µM (SK-MEL-28; SK-MEL-28, 24 h, read-out: GI): 30%; inhibition of growth at 10 µM (UACC-257; UACC-257, 24 h, read-out: GI): 31%; inhibition of growth at 10 µM (OVCAR-4; OVCAR-4, 24 h, read-out: GI): 95%; growth inhibition (GI) (TK-10): inactive; growth inhibition (GI) (PC-3): inactive; inhibition of growth at 10 µM (MCF7; MCF7, 24 h, read-out: GI): 38%; growth inhibition (GI) (MDA-MB-231): inactive; growth inhibition (GI) (Hs-578T): inactive; growth inhibition (GI) (T47D): inactive; inhibition (Ovis aries): inactive |
| COc1ccc(C(=O)c2cc(-c3nc(OC)nc(OC)n3)c3cc(C#N)ccn23)cc1 | inactive | inactive | inactive | inactive | inactive | inactive | inactive | inactive | inactive | inactive | inactive | inactive | inactive | inactive | inactive | inactive | inactive | inactive | inactive | inactive | growth inhibition (GI) (K562): inactive; inhibition of growth at 10 µM (SR): 13%; inhibition of growth at 10 µM (HOP-62; HOP-62, 24 h, read-out: GI): 25%; growth inhibition (GI) (SF-295): inactive; inhibition of growth at 10 µM (SNB-75; SNB-75, 24 h, read-out: GI): 46%; growth inhibition (GI) (Malme-3M): inactive; growth inhibition (GI) (MDA-MB-435): inactive; growth inhibition (GI) (SK-MEL-28): inactive; growth inhibition (GI) (UACC-257): inactive; growth inhibition (GI) (OVCAR-4): inactive; inhibition of growth at 10 µM (RXF 393; RXF 393, 24 h, read-out: GI): 14%; growth inhibition (GI) (TK-10): inactive; growth inhibition (GI) (PC-3): inactive; growth inhibition (GI) (MCF7): inactive; inhibition of growth at 10 µM (MDA-MB-231; MDA-MB-231, 24 h, read-out: GI): 18%; inhibition of growth at 10 µM [1]: 16%; growth inhibition (GI) (T47D): inactive; inhibition (Ovis aries): inactive |
